Data: patent US20070238770A1, “PROCESS FOR PREPARING NOVEL CRYSTALLINE FORMS OF PELIGLITAZAR, NOVEL STABLE FORMS PRODUCED THEREIN AND FORMULATIONS” (Bristol-Myers Squibb Company, priority 2006, published 2007)

Legend:
Solubility in water = type: physicochemical; settings: final pH 7.6
[1] = Solid state stability under storage conditions (DSC, PXRD, HPLC); settings: for solid state stability (physically and chemically): RT/RL, 25° C./60% RH, 40° C./75% RH, 50° C., up to 2 weeks, DSC, PXRD, HPLC analysis
[2] = Moisture-sorption isotherm; type: physicochemical; settings: from 25 to 75% RH at 25° C.
Description: Moisture sorption isotherms were collected in a VTI SGA-100 Symmetric Vapor Analyzer using approximately 10 mg of sample. The sample was dried at 60° C. until the loss rate of 0.0005 wt %/min was obtained for 10 minutes. The sample was tested at 25° C. and 3 or 4, 5, 15, 25, 35, 45, 50, 65, 75, 85, and 95% RH. Equilibration at each RH was reached when the rate of 0.0003 wt %/min for 35 minutes was achieved or a maximum of 600 minutes.

[3] = Mechanical stress on crystal form; type: physicochemical; settings: mechanical stress applied

Row | Compound | solubility in water (Solubility in water) | solid state stability (physically and chemically) [1] | moisture uptake (hygroscopicity) [2] | conversion of N-1 form to the N-2 form under mechanical stress [3] | conversion of the N-1 form to the N-2 form (PXRD analysis) ([1]; under the storage conditions of b18)
1 | COc1ccc(OC(=O)N(CC(=O)O)[C@@H](C)c2ccc(OCCc3nc(-c4ccccc4)oc3C)cc2)cc1.NCCCC[C@H](N)C(=O)O | greater than 124 mg/mL | stable |  |  | 
2 | COc1ccc(OC(=O)N(CC(=O)O)[C@@H](C)c2ccc(OCCc3nc(-c4ccccc4)oc3C)cc2)cc1 [Form N-1, peliglitazar] |  | stable | negligible | will not cause conversion | no conversion
